Assay results: patent US12673084B2, “Compositions and methods for combinatorial drug discovery in nanoliter droplets” (The Broad Institute, Inc., priority 2017, dated 2026)
Starred links: 1 amine or outer side, 2 acyl side, 3 side chain; linkers in the order of their positions; H or OH if unused. Non-standard residues stand in square brackets, D forms with d. Residues, ends and D or L forms follow the SMILES beside them. Groups on a side chain read outwards from the residue. *: point of attachment. Ethylenediamine = C(CN[*:2])N[*:1]; Hyp = O=C(O)[C@@H]1C[C@@H](O)CN1; Phg = N[C@H](C(=O)O)c1ccccc1; CO = O=C([*:1])[*:2]; Bn = c1ccc(C*)cc1

How the values were obtained:
E. coli K-12 MG1655 = test: Antibiotic potentiation primary screen in nanoliter droplet microwell array (GFP growth, Bliss score); assay type: cell-based, Escherichia coli; settings: for Interaction between Tedizolid and Pasireotide (relative GFP): each 100 μM, same microwell array, FIG. 34; for Primary screening prediction of synergy with tetracycline: compound 100 μM x tetracycline; for Primary screening call, pilot phase: pilot phase of screen
Description: To perform the antibiotic potentiation screen, each microwell chip received droplets containing a total of 64 input conditions, with 32 held constant across all chips, and 32 that vary on each chip (FIG. 3F). The first 32, held fixed, consisted of 30 antibiotic conditions (10 antibiotics×3 concentrations, no cells), and 2 media controls (no cells). The second 32 consisted of 1-2 positive controls (sulbactam 20 μM, + cells; or erythromycin 5 μM, + cells), 1-2 negative blank controls (+ cells), 2-4 media controls (+ cells), and 24-28 variable compounds (100 μM, + cells). All conditions were in cation-adjusted Mueller Hinton broth media, 2% DMSO (all concentrations reported are final concentrations).
This setup allowed the screen to be performed in a divide-and-conquer format. The repurposing compound library is composed of 4,160 compounds across 52 96-well plates (80 compounds per plate, with controls in column 1 and 12). Each 96-well plate was divided into 3 groups of 32, each run on a separate chip but pooled with the same set of antibiotics-carrying droplets.
E. coli K-12 MG1655 with plasmid-mediated constitutive expression of GFP was prepared as described above, and added to all conditions described as “+ cells” just prior to emulsification. After loading, imaging, and merging, microwell arrays were incubated at 37° C. (static), and then later imaged again to measure growth by GFP fluorescence.
To estimate synergy between compounds and antibiotics, the Bliss Independence metric was used.
The net growth inhibition for antibiotic A from microwells carrying an antibiotic A (no cells) droplet, and a media (+ cells) droplet were estimated. The net growth inhibition of a screening compound from microwells carrying compound B (+ cells) droplet, and a media (no cells) droplet were also estimated. All growth values were normalized to microwells containing a pair of media (+ cells) and media (no cells) droplets, and estimated synergy using the Bliss Independence metric. Since each antibiotic was present at 3 concentrations, a metric was summed for the compound across each of the 3 conditions to yield a final metric called “Bliss Score.” Compounds with net growth inhibition exceeding 80% were removed from analysis.
To estimate the uncertainty in the Bliss Score measurement, all microwells in the array were bootstrap resampled (100 iterations) to the number of counted for each pair of inputs and recomputed Bliss Scores to estimate a sampling distribution and standard error.

P. aeruginosa = test: Checkerboard drug interaction assay ampicillin x sulbactam, 96-well broth culture vs microdroplet platform; assay type: cell-based, Pseudomonas aeruginosa
Text: FIG. 27 is a graph of a comparison checkerboard assay between 96-well plates and microwell array platform. Comparison of checkerboard drug interaction assay in P. aeruginosa for ampicillin and a beta-lactamase inhibitor, sulbactam.

[1] = 12 weeks, cited from earlier work
[2] = year-long trial; cited from earlier work
[3] = 416 COPD patients; dry-powder inhaler; cited from earlier work
[4] = target: recombinant, homomeric GluR1 and GluR3 receptors; settings: cited from earlier work
[5] = target: Native AMPA/kainate receptors, pyramidal neurons; settings: cited from earlier work
[6] = target: Native AMPA/kainate receptors, interneurons; settings: cited from earlier work
[7] = target: T1, receptors containing edited GluR2 subunits (Homo sapiens, UniProt P42262, Q607R); settings: 100 microM compound; n=5 oocytes; Vh −80 mV; cited from earlier work
T1 construct: host or cells: Xenopus oocytes expressing recombinant receptors
T1 sequence (P42262 25-883 Q607R): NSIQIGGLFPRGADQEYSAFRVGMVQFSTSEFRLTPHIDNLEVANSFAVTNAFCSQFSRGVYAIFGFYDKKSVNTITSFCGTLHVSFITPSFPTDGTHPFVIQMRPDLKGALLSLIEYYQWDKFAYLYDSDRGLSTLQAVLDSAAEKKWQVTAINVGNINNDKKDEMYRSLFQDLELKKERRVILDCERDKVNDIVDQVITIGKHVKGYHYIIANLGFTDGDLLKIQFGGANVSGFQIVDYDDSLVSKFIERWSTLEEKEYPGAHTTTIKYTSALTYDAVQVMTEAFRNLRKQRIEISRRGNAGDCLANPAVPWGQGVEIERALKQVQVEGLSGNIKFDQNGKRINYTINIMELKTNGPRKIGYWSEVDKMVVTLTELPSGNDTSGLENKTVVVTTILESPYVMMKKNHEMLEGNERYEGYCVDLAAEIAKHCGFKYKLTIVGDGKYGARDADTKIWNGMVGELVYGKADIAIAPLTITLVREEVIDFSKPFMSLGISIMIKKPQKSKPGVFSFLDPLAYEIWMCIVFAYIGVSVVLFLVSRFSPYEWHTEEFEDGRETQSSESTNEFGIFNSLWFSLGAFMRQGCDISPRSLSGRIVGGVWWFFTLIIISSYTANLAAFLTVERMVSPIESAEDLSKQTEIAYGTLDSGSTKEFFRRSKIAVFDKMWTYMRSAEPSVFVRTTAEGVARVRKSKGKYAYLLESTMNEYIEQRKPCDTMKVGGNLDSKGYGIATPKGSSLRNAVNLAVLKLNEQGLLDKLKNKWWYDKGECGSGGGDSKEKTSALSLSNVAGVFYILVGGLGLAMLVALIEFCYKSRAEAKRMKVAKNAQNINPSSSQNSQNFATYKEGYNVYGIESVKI

somatostatin receptor 5 = somatostatin receptor 5 (Homo sapiens, UniProt P35346); settings: cited from earlier work
somatostatin receptor 5, sequence (P35346 whole entry): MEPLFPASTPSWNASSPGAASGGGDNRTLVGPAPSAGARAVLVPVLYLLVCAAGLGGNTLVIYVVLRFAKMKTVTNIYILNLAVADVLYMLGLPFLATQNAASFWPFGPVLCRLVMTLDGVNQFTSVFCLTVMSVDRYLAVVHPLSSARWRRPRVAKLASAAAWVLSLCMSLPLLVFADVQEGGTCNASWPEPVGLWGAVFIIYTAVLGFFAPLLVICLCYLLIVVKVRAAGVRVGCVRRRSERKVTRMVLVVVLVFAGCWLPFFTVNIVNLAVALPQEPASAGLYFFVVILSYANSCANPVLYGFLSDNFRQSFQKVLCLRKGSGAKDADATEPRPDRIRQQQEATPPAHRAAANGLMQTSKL

Rac = Rac (Homo sapiens, UniProt P63000); settings: cited from earlier work
[8] = cited from earlier work

SMILES: CC1(C)[C@H](C(=O)O)N2C(=O)C[C@H]2S1(=O)=O [sulbactam]
- Bliss score with ampicillin (E. coli K-12 MG1655; positive control, expected value, sulbactam 20 μM x ampicillin, E. coli): ~ 1
- FIC with ampicillin (P. aeruginosa; 96-well broth culture): <= 0.5
- FIC with ampicillin (P. aeruginosa; microdroplet platform): <= 0.3125

SMILES: CCc1cc2c(cc1CC)CC(NC[C@H](O)c1ccc(O)c3[nH]c(=O)ccc13)C2 [Indacaterol]
- Primary screening call with erythromycin (E. coli K-12 MG1655; compound 100 μM x erythromycin, E. coli): screening hit
- effect on FEV1 compared with tiotropium [1]: no statistical difference
- St. George's Respiratory Questionnaire (SGRQ) total score ([1]; vs tiotropium): greater improvements
- transition dyspnoea index (TDI) total score ([1]; vs tiotropium): greater improvements
- improving FEV1 compared with twice-daily formoterol [2]: significantly more effective
- FEV1 (both trough and AUC) compared to placebo [3]: statistically improved

SMILES: C[N+](C)(C)CCCCCNCC12CC3CC(CC(C3)C1)C2 [IEM-1460, 1-trimethylammonio-5-(1-adamantane-methyl-ammoniopentanedibromide)]
- IC50 ([4]; holding potential (Vh) of −80 mV, open channel block): 1.6 µM
- IC50 ([5]; Vh=−80 mV): 1620 µM
- IC50 ([6]; Vh=−80 mV): 1.6 µM
- inhibition of responses to 100 microM kainate [7]: 7.8+/−2.4%

SMILES: NCCCC[C@@H]1NC(=O)[C@@H](Cc2c[nH]c3ccccc23)NC(=O)[C@H](c2ccccc2)NC(=O)[C@@H]2C[C@@H](OC(=O)NCCN)CN2C(=O)[C@H](Cc2ccccc2)NC(=O)[C@H](Cc2ccc(OCc3ccccc3)cc2)NC1=O [Pasireotide, cyclo[{4-(NH2-C2H4-NH—CO—O-)Pro}-Phg-DTrp-Lys-Tyr(4-Bzl)-Phe]] (cyclo([Hyp]([CO-Ethylenediamine])[Phg][dW]KY(Bn)F))
- Interaction between Tedizolid and Pasireotide (relative GFP) (E. coli K-12 MG1655): synergistic interaction
- increased affinity to somatostatin receptor 5 compared to other somatostatin analogs (somatostatin receptor 5): 40 fold

SMILES: CCN(CC)CCCC(C)Nc1nc(C)cc(Nc2ccc3nc(C)cc(N)c3c2)n1.Cl.Cl.Cl (racemic) [NSC23766]
- Primary screening prediction of synergy with novobiocin (E. coli K-12 MG1655; compound 100 μM x novobiocin, E. coli): synergy predicted
- Primary screening prediction of synergy with tetracycline (E. coli K-12 MG1655; E. coli): no synergy predicted

SMILES: Cn1nnc(-c2ccc(-c3ccc(N4C[C@H](CO)OC4=O)cc3F)cn2)n1 [Tedizolid]
- Interaction between Tedizolid and Pasireotide (relative GFP) (E. coli K-12 MG1655): synergistic interaction

SMILES: O=C(CNC(=O)c1ccc(Cl)cc1)NO [Benurestat, 2-(para-chlorobenzamide)-acetohydroxamic acid]
- Primary screening call with vancomycin (E. coli K-12 MG1655; compound 100 μM x vancomycin, E. coli): screening hit
- Primary screening call, pilot phase (E. coli K-12 MG1655; E. coli): hit

SMILES: CCn1c2ccccc2c2cc(Nc3ccnc(NCCCN4CCOCC4)n3)ccc21 (racemic) [EHop-016]
- more efficient inhibitor of Rac activity than NSC23766 (Rac): 100 fold

SMILES: C[C@@H](O)[C@@H]1NC(=O)[C@H](CCCCN)NC(=O)[C@@H](Cc2c[nH]c3ccccc23)NC(=O)[C@H](Cc2ccccc2)NC(=O)[C@@H](NC(=O)[C@H](N)Cc2ccccc2)CSSC[C@@H](C(=O)N[C@H](CO)[C@@H](C)O)NC1=O [Octreotide]
- half-life [8]: 1.5 h

SMILES: Br.Br.NCCCCCNCC12CC3CC(CC(C3)C1)C2 [IEM 1754, 1-ammonio-5-(1-adamantane-methylammoniopentanedibromide)]
- Primary screening prediction of synergy with tetracycline (E. coli K-12 MG1655; E. coli): predicted neutral
- Primary screening call, pilot phase (E. coli K-12 MG1655; E. coli): hit
- times less potent than IEM-1460 ([4]; homomeric GluR1 and GluR3): 3.8 times
- potency relative to IEM-1460 [5]: equipotent
- times less potent than IEM-1460 [6]: approximately 3 times

SMILES: CC[C@H]1OC(=O)[C@H](C)[C@@H](O[C@H]2C[C@@](C)(OC)[C@@H](O)[C@H](C)O2)[C@H](C)[C@@H](O[C@@H]2O[C@H](C)C[C@H](N(C)C)[C@H]2O)[C@](C)(O)C[C@@H](C)C(=O)[C@H](C)[C@@H](O)[C@]1(C)O [erythromycin]
- Bliss score with tetracycline (E. coli K-12 MG1655; positive control, expected value, erythromycin 5 μM x tetracycline, E. coli): ~ 0.5
